Measurements as given in patent US4309559A, “Sulphonamides useful as pesticides” (FBC Limited, priority 1977, dated 1982).

Columns and labels:
Type in all cases: in vivo
[1] = system: Barnyardgrass (Echinochloa crus-galli); experiment: Pre-emergence soil surface spray, barnyardgrass; conditions: soil surface spray 2.8 kg/ha, 21 days, 0=no effect, 100=complete kill
Excerpt: (§1) Seeds of the plant species listed below were sown in John Innes I potting compost in aluminium pans, 19 cm long×9.5 cm wide×5.0 cm high, one species per pan. The soil surface was then sprayed with a compound listed below, formulated as a solution in 1:1 by volume aqueous acetone except for the compound of Example 44 which was formulated as an aqueous suspension containing 1000 parts per million of the wetting agent Lissapol NX (nonylphenol/ethylene oxide condensate). Each compound was applied at a rate of 2.8 kg of active ingredient per hectare in 450 liters of spray liquid per hectare. The pans were then watered, and placed in a controlled environment room (22° C., relative humidity 65-85%, 14 hours per day artificial illumination at 17,000 lux) for 21 days. The plants were then visually assessed for any growth regulatory or herbicidal effects. All differences from an untreated control were scored on a scale from 0-100, where 0 signifies no effect and 100 signifies complete kill.

[2] = system: Blackgrass (Alopecurus myosuroides); experiment: Pre-emergence soil surface spray, blackgrass; conditions: soil surface spray 2.8 kg/ha, 21 days, 0=no effect, 100=complete kill
Excerpt: as §1

[3] = system: Wild Oat (Avena fatua); experiment: Pre-emergence soil surface spray, wild oat; conditions: soil surface spray 2.8 kg/ha, 21 days, 0=no effect, 100=complete kill
Excerpt: as §1

[4] = system: Linseed (Linum usitatissimum); experiment: Soil incorporation (attaclay/sand dust), growth regulatory or herbicidal effects, linseed; conditions: 504 h, soil incorporation 26 ppm, 21 days, 0=no effect, 100=complete kill, read-out: growth regulatory or herbicidal effect score
How it was run: (§2)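 Active ingredient formulated as attaclay/sand dust and mixed into John Innes I potting compost at 26 or 130 ppm w/v (about 11.2 or 56 kg a.i./ha cultivated to 5 cm). Seeds sown in treated soil, grown 21 days at 22° C, 65-85% RH, 14 h light at 13,000 lux; visual score 0-100 versus untreated control.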

[5] = system: Barley (Hordeum vulgare); experiment: Pre-emergence soil surface spray, barley; conditions: soil surface spray 2.8 kg/ha, 21 days, 0=no effect, 100=complete kill
Excerpt: as §1

[6] = system: Rice (Orysae sotiva); experiment: Pre-emergence soil surface spray, rice; conditions: soil surface spray 2.8 kg/ha, 21 days, 0=no effect, 100=complete kill
Excerpt: as §1

[7] = system: Peas (Pisum sativum); experiment: Soil incorporation (attaclay/sand dust), growth regulatory or herbicidal effects, peas; conditions: Lathyrus oleraceus, 504 h, soil incorporation 26 ppm, 21 days, 0=no effect, 100=complete kill, read-out: growth regulatory or herbicidal effect score
How it was run: as §2

[8] = system: Crabgrass (Digitaria sanguinalis); experiment: Pre-emergence soil surface spray, crabgrass; conditions: soil surface spray 2.8 kg/ha, 21 days, 0=no effect, 100=complete kill
Excerpt: as §1

[9] = system: Mustard (Sinapis alba); experiment: Soil incorporation (attaclay/sand dust), growth regulatory or herbicidal effects, mustard; conditions: 504 h, soil incorporation 26 ppm, 21 days, 0=no effect, 100=complete kill, read-out: growth regulatory or herbicidal effect score
How it was run: as §2

[10] = system: Wheat (Triticum aestivum); experiment: Post-emergence foliar spray of monocotyledons, wheat; conditions: foliar spray 2.8 kg/ha, 14 days, 0=no effect, 100=complete kill
Description: (§3) Seeds of the monocotyledon species listed below were sown in anodised aluminium pans, 19 cm long×9.5 cm wide×5.0 cm deep, containing John Innes I potting compost. They were then watered and placed in a controlled environment room (22° C.; 65-85% relative humidity; 14 hours per day artificial illumination at 17,000 lux). 14 days after sowing, the seedlings were given a foliar spray of the compound of Example 44, formulated as an aqueous suspension together with 2000 ppm of the wetting agent Lissapol NX. The dosage rate was adjusted to be 2.8 kg active ingredient in 450 liters per hectare. After a further 14 days in the controlled environment room, the plants were visually assessed for any growth regulatory or herbicidal effect. All differences from an untreated control were scored on a scale from 0-100 where 0 signifies no effect and 100 signifies complete kill.
(§4) The compounds listed below were tested according to the procedure of Example 66 but including rice (Oryza sativa) as an additional test species.

[11] = system: Oats (Avena sativa); experiment: Soil incorporation (attaclay/sand dust), growth regulatory or herbicidal effects, oats; conditions: 504 h, soil incorporation 26 ppm, 21 days, 0=no effect, 100=complete kill, read-out: growth regulatory or herbicidal effect score
How it was run: as §2

[12] = system: Wheat (Triticum aestivum); experiment: Pre-emergence soil surface spray, wheat; conditions: soil surface spray 2.8 kg/ha, 21 days, 0=no effect, 100=complete kill
Excerpt: as §1

[13] = system: Ryegrass (Lolium perenne); experiment: Soil incorporation (attaclay/sand dust), growth regulatory or herbicidal effects, ryegrass; conditions: 504 h, soil incorporation 26 ppm, 21 days, 0=no effect, 100=complete kill, read-out: growth regulatory or herbicidal effect score
How it was run: as §2

[14] = system: Barley (Hordeum vulgare); experiment: Post-emergence foliar spray of monocotyledons, barley; conditions: foliar spray 2.8 kg/ha, 14 days, 0=no effect, 100=complete kill
Description: as §3, §4

[15] = system: Barnyardgrass (Echinochloa crus-galli); experiment: Post-emergence foliar spray of monocotyledons, barnyardgrass; conditions: foliar spray 2.8 kg/ha, 14 days, 0=no effect, 100=complete kill
Description: as §3, §4

[16] = system: Maize (Zea mays); experiment: Soil incorporation (attaclay/sand dust), growth regulatory or herbicidal effects, maize; conditions: 504 h, soil incorporation 26 ppm, 21 days, 0=no effect, 100=complete kill, read-out: growth regulatory or herbicidal effect score
How it was run: as §2

CS(=O)(=O)N(CC#N)c1ccc(Cl)c(Cl)c1 [Example 44, N-cyanomethyl-3,4-dichloro-methanesulphonanilide]
growth regulatory or herbicidal effect score [1]: 80 | growth regulatory or herbicidal effect score [2]: 0 | growth regulatory or herbicidal effect score [3]: 0 | pest or weed control at 26 µg/mL [4]: 20% | growth regulatory or herbicidal effect score [5]: 0 | growth regulatory or herbicidal effect score [6]: 0 | pest or weed control at 26 µg/mL [7]: 0% | growth regulatory or herbicidal effect score [8]: 0 | pest or weed control at 26 µg/mL [9]: 40% | growth regulatory or herbicidal effect score [10]: 0 | plant injury at 26 µg/mL [11]: 60% | growth regulatory or herbicidal effect score [12]: 0 | pest or weed control at 26 µg/mL [13]: 5% | growth regulatory or herbicidal effect score [14]: 0 | growth regulatory or herbicidal effect score [15]: 100 | plant injury at 26 µg/mL [16]: 5%
